Assay results taken from ChEMBL document CHEMBL1201862, “PubChem BioAssay data set” (2004).
“And” between values parts separate entries of the source, which are not always exact repeats. Equal values may be shown once.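 The compound was tested at five concentrations on cells cultured in 96-well plates, with a 48-hour exposure period. GI50 = concentration required for 50% inhibition of growth.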 The source made the active and inactive calls. Cut-off read from the data, not from the text of the source: active = GI50 up to about 1.1 µM and inactive = higher.

What was measured:
Test in all cases: NCI-60 cell line screen, 48 h
[1] = test system: SNB-19
[2] = test system: OVCAR-3
[3] = test system: Hs-578T
[4] = test system: SR
[5] = test system: DU-145
[6] = test system: T47D
[7] = test system: M14
[8] = test system: EKVX
[9] = test system: U-251
[10] = test system: OVCAR-5
[11] = test system: A549
[12] = test system: NCI/ADR-RES
[13] = test system: TK-10
[14] = test system: LOX IMVI
[15] = test system: 786-0
[16] = test system: PC-3
[17] = test system: HOP-62
[18] = test system: K562
[19] = test system: NCI-H522
[20] = test system: HCT-116
[21] = test system: UACC-62
[22] = test system: SK-MEL-2
[23] = test system: COLO 205
[24] = test system: A498
[25] = test system: RPMI-8226
[26] = test system: SF-539
[27] = test system: MOLT-4
[28] = test system: SF-268
[29] = test system: UACC-257
[30] = test system: BT-549
[31] = test system: NCI-H460
[32] = test system: HCT-15
[33] = test system: HOP-92
[34] = test system: IGROV-1
[35] = test system: MCF7
[36] = test system: OVCAR-8
[37] = test system: Malme-3M
[38] = test system: KM12
[39] = test system: HL-60
[40] = test system: ACHN
[41] = test system: CAKI-1
[42] = test system: SW-620
[43] = test system: SF-295
[44] = test system: MDA-MB-435
[45] = test system: SK-OV-3
[46] = test system: SN12C
[47] = test system: NCI-H23
[48] = test system: SK-MEL-28
[49] = test system: RXF 393
[50] = test system: HT-29
[51] = test system: MDA-N
[52] = test system: SK-MEL-5
[53] = test system: UO-31
[54] = test system: OVCAR-4
[55] = test system: NCI-H226
[56] = test system: SNB-75
[57] = test system: HCC 2998
[58] = test system: MDA-MB-231

Measured: GI50

O=[N+]([O-])c1ccccc1CSc1nc(O)c2nc[nH]c2n1
> 100 µM: [32]
inactive: [1] 59.8 µM | [2] > 100 µM | [3] 52.4 µM | [4] > 100 µM | [5] > 100 µM | [6] > 100 µM and 75.7 µM | [7] 61.9 µM | [8] 51.8 µM | [9] > 100 µM and 96.4 µM | [10] > 100 µM and 92 µM | [11] > 100 µM | [12] > 100 µM | [13] > 100 µM and 79.8 µM | [14] > 100 µM | [15] > 100 µM | [16] 79.8 µM | [17] > 100 µM | [18] > 100 µM | [19] > 100 µM and 58.7 µM | [20] > 100 µM | [21] > 100 µM and 88.1 µM | [22] > 100 µM | [23] > 100 µM | [24] > 100 µM | [25] > 100 µM and 89.3 µM | [26] > 100 µM | [27] > 100 µM | [28] > 100 µM | [29] 81.3 µM | [30] > 100 µM | [31] > 100 µM | [33] > 100 µM | [34] > 100 µM | [35] > 100 µM and > 99.3 µM | [36] > 100 µM | [37] > 100 µM | [38] > 100 µM | [39] 78.2 µM | [40] > 100 µM | [41] 90.4 µM | [42] > 100 µM | [43] > 100 µM and 99.8 µM | [44] > 100 µM and 55 µM | [45] 63.8 µM | [46] > 100 µM and 66.4 µM | [47] > 100 µM | [48] > 100 µM | [49] > 100 µM | [50] 72.6 µM | [51] > 100 µM | [52] > 100 µM

COc1c(-c2nc3ccc(N4CCN(C)CC4)nc3[nH]2)cc(OC)c2[nH]c(CO)nc12
> 100 µM: [32]
inactive: [1] 42.6 µM | [2] 39.3 µM | [3] > 100 µM | [53] > 100 µM | [4] > 100 µM | [5] > 100 µM | [6] 37.1 µM | [7] > 100 µM | [8] > 100 µM | [54] 70 µM | [9] 29.6 µM | [55] 36.1 µM | [10] > 100 µM | [11] > 100 µM | [56] 95.5 µM | [12] > 100 µM | [13] > 100 µM | [14] 85.5 µM | [15] 69.3 µM | [17] 99.5 µM | [18] 58.1 µM | [19] 52.4 µM | [20] 54.7 µM | [57] 38.2 µM | [21] 82.2 µM | [22] 32 µM | [23] > 100 µM | [24] > 100 µM | [26] 22.5 µM | [27] 52.2 µM | [28] 92.3 µM | [29] > 100 µM | [30] > 100 µM | [31] > 100 µM | [33] > 100 µM | [34] > 100 µM | [35] 11.2 µM | [36] > 100 µM | [37] > 100 µM | [58] 44.1 µM | [38] 93.5 µM | [40] > 100 µM | [41] > 100 µM | [42] > 100 µM | [43] > 100 µM | [44] 56.8 µM | [45] > 100 µM | [46] 53 µM | [47] > 100 µM | [48] > 100 µM | [49] > 100 µM | [50] > 100 µM | [51] > 100 µM | [52] > 100 µM
